Laboratory results taken from ChEMBL document CHEMBL1201862, “PubChem BioAssay data set” (2004).
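96-well plates; 48 h exposure; 5 concentrations. Endpoints by linear interpolation between flanking doses. Not reached: highest tested concentration assigned. Abbreviation: GI50, concentration required for 50% inhibition of growth.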 Activity calls are given as the source filed them. No stated cut-off is given here; in the data, active = GI50 up to about 1.1 µM and inactive = higher.

Key:
Assay in all cases: inhibition of tumour cell growth, NCI panel, 48 h
[1] = system: HT-29
[2] = system: ACHN
[3] = system: IGROV-1
[4] = system: HOP-92
[5] = system: HOP-62
[6] = system: KM12
[7] = system: SK-MEL-5
[8] = system: SW-620
[9] = system: OVCAR-3
[10] = system: MDA-MB-231
[11] = system: SN12C
[12] = system: SF-268
[13] = system: SF-539
[14] = system: CCRF-CEM
[15] = system: CAKI-1
[16] = system: SNB-19
[17] = system: MCF7
[18] = system: NCI-H522
[19] = system: SF-295
[20] = system: MDA-MB-435
[21] = system: HCC 2998
[22] = system: MDA-N
[23] = system: RPMI-8226
[24] = system: M14
[25] = system: RXF 393
[26] = system: OVCAR-4
[27] = system: COLO 205
[28] = system: K562
[29] = system: BT-549
[30] = system: SK-MEL-2
[31] = system: PC-3
[32] = system: NCI-H23
[33] = system: NCI-H460
[34] = system: UACC-62
[35] = system: UACC-257
[36] = system: NCI/ADR-RES
[37] = system: SK-MEL-28
[38] = system: SR
[39] = system: U-251
[40] = system: MOLT-4
[41] = system: A549
[42] = system: DU-145
[43] = system: UO-31
[44] = system: OVCAR-8
[45] = system: OVCAR-5
[46] = system: EKVX
[47] = system: HCT-15
[48] = system: Hs-578T
[49] = system: 786-0
[50] = system: NCI-H226
[51] = system: SNB-75
[52] = system: HCT-116
[53] = system: SK-OV-3

Question: How did the GI50 [1] turn out when `NC(CCC(=O)NC(CSC(=O)N(O)c1ccc(Cl)cc1)C(=O)NCC(=O)O)C(=O)O` (stereo not drawn) was run?
Answer: > 500 nM (active)

Question: And the GI50 [2]?
Answer: > 500 nM (active)

Question: And the GI50 [3]?
Answer: > 500 nM (active)

Question: What about the GI50 [4] of the same compound?
Answer: > 500 nM (active)

Question: What about the GI50 [5] of the same compound?
Answer: > 500 nM (active)

Question: And the GI50 [6]?
Answer: > 500 nM (active)

Question: What about the GI50 [7] of the same compound?
Answer: > 500 nM (active)

Question: What about the GI50 [8] of the same compound?
Answer: > 500 nM (active)

Question: What about the GI50 [9] of the same compound?
Answer: > 500 nM (active)

Question: And the GI50 [10]?
Answer: > 500 nM (active)

Question: And the GI50 [11]?
Answer: > 500 nM (active)

Question: What about the GI50 [12] of the same compound?
Answer: > 500 nM (active)

Question: What about the GI50 [13] of the same compound?
Answer: > 500 nM (active)

Question: And the GI50 [14]?
Answer: > 500 nM (active)

Question: What about the GI50 [15] of the same compound?
Answer: > 500 nM (active)

Question: And the GI50 [16]?
Answer: > 500 nM (active)

Question: What about the GI50 [17] of the same compound?
Answer: > 500 nM (active)

Question: What about the GI50 [18] of the same compound?
Answer: > 500 nM (active)

Question: What about the GI50 [19] of the same compound?
Answer: > 500 nM (active)

Question: What about the GI50 [20] of the same compound?
Answer: > 500 nM (active)

Question: And the GI50 [21]?
Answer: > 500 nM (active)

Question: And the GI50 [22]?
Answer: > 500 nM (active)

Question: What about the GI50 [23] of the same compound?
Answer: > 500 nM (active)

Question: What about the GI50 [24] of the same compound?
Answer: > 500 nM (active)

Question: And the GI50 [25]?
Answer: > 500 nM (active)

Question: And the GI50 [26]?
Answer: > 500 nM (active)

Question: What about the GI50 [27] of the same compound?
Answer: > 500 nM (active)

Question: And the GI50 [28]?
Answer: > 500 nM (active)

Question: And the GI50 [29]?
Answer: > 500 nM (active)

Question: What about the GI50 [30] of the same compound?
Answer: > 500 nM (active)

Question: And the GI50 [31]?
Answer: > 500 nM (active)

Question: What about the GI50 [32] of the same compound?
Answer: > 500 nM (active)

Question: And the GI50 [33]?
Answer: > 500 nM (active)

Question: What about the GI50 [34] of the same compound?
Answer: > 500 nM (active)

Question: What about the GI50 [35] of the same compound?
Answer: > 500 nM (active)

Question: And the GI50 [36]?
Answer: > 500 nM (active)

Question: What about the GI50 [37] of the same compound?
Answer: > 500 nM (active)

Question: What about the GI50 [38] of the same compound?
Answer: > 500 nM (active)

Question: And the GI50 [39]?
Answer: > 500 nM (active)

Question: What about the GI50 [40] of the same compound?
Answer: > 500 nM (active)

Question: And the GI50 [41]?
Answer: > 500 nM (active)

Question: What about the GI50 [42] of the same compound?
Answer: > 500 nM (active)

Question: What about the GI50 [43] of the same compound?
Answer: > 500 nM (active)

Question: And the GI50 [44]?
Answer: > 500 nM (active)

Question: And the GI50 [45]?
Answer: > 500 nM (active)

Question: What about the GI50 [46] of the same compound?
Answer: > 500 nM (active)

Question: And the GI50 [47]?
Answer: > 500 nM

Question: And the GI50 [48]?
Answer: > 500 nM (active)

Question: And the GI50 [49]?
Answer: > 500 nM (active)

Question: What about the GI50 [50] of the same compound?
Answer: > 500 nM (active)

Question: And the GI50 [51]?
Answer: > 500 nM (active)

Question: And the GI50 [52]?
Answer: > 500 nM (active)

Question: What about the GI50 [53] of the same compound?
Answer: > 500 nM (active)
